{"source": "patent US20250320213A1", "about": "“Nitrogen-Containing Heterocyclic Compounds” (Pfizer Inc., priority 2024, published 2025)", "key": {"STAT6": {"molecular_target": "T1, STAT6 (Homo sapiens, UniProt P42226)", "T1 construct": "stably transfected HaCaT keratinocyte cell line, which expresses NanoLuc luciferase reporter gene under the transcriptional control of the STAT6 responsive promoter; endogenous in cells; host or cells: HaCaT keratinocyte reporter cell line (stably transfected with a NanoLuc reporter)", "T1 sequence (P42226 1-847)": "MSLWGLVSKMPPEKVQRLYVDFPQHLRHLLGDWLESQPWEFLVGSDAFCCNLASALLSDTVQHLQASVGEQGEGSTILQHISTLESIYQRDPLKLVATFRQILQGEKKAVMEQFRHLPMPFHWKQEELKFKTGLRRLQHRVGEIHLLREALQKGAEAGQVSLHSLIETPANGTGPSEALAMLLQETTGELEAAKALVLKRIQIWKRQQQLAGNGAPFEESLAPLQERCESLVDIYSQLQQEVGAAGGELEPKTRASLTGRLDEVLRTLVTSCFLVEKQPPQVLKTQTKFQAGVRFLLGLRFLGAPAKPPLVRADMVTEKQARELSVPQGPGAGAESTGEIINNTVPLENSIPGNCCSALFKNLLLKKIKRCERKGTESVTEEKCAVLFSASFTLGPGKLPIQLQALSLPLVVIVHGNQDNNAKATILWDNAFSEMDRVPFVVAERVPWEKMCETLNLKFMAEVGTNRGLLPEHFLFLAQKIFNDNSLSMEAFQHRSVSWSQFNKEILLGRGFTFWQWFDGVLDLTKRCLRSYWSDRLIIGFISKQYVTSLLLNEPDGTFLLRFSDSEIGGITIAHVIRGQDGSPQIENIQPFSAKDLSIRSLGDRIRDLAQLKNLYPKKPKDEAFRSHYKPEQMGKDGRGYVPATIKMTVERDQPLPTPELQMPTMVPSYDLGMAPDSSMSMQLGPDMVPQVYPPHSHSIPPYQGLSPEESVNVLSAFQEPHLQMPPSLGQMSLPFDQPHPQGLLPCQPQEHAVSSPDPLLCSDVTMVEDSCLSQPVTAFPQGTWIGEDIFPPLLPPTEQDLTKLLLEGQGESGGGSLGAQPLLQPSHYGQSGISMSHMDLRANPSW", "assay": "STAT6 Reporter Luciferase Assay (IL-13 stimulated HaCaT keratinocyte NanoLuc reporter cells)", "type": "cell-based", "conditions": "read-out: Reporter EC50", "how_it_was_run": "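IL-13 (0.12 nM, 4 h) stimulated STAT6 reporter activity in HaCaT cells after a 2 h compound pre-incubation; NanoLuc signal was measured.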"}, "[1]": {"test_system": "CCL17 secretion in peripheral human whole blood", "assay": "Human Whole Blood (HWB) CCL17 TR-FRET Assay (IL-13 stimulated CCL17 secretion)", "type": "cell-based", "method": "The IC50 (half-maximal concentration required for inhibition) of compounds for the inhibition of CCL17 secretion in peripheral human whole blood, stimulated through the IL-13-IL-13 receptor/IL-4 receptor pathway was evaluated with a TR-FRET sandwich ELISA CCL17 (TARC) Assay Kit (Bioauxilium).\nTest compounds (solubilized and serially diluted in DMSO, in an 11 point, 3-fold dilution series in duplicate) were spotted, 80 nL per well, into a 384 well v-bottom polypropylene plate. Human whole blood was collected from a peripheral vein, 714 units of sodium heparin was added for every 50 mL of blood collected. Sixty μL per well of blood was added to the compound plate. The blood plate was incubated for two hours at 37° C. After two hours, CCL17 production was stimulated with the addition of 20 μL per well of IL13 (R&D Systems) in HBSS with calcium and magnesium, with a final concentration of 10 ng/mL IL13. The plate containing blood, compound, and IL-13 was incubated at 37° C. for 48 hours, to allow for CCL17 production. After 48 hours, the plate was centrifuged at 1,500 revolutions per minute (RPM) for 7 minutes, with no braking. The CCL17 TR-FRET Assay Kit detection reagent was prepared according to kit instructions and 4 μL per well of the antibody cocktail was added to a 384-well white low volume non-binding coated plate (Corning). Sixteen μL of serum from the centrifuged blood plate was transferred to the detection plate containing the TR-FRET antibody cocktail. The plate was centrifuged briefly, then covered and incubated 16 hours at room temperature. The plate was then read on an EnVision 2105 multilabel reader (PerkinElmer) with settings for TR-FRET Ratio=10,000×(fluorescence intensity 665 nm/fluorescence intensity 615 nm)."}, "[2]": {"conditions": "IL-13 stimulated HaCaT STAT6 NanoLuc reporter cells"}, "[3]": {"conditions": "Homo sapiens, 48 h, human whole blood, IL-13 10 ng/mL"}, "[4]": {"conditions": "STAT6 NanoLuc luciferase reporter, IL-13 stimulated HaCaT keratinocyte cells"}, "[5]": {"conditions": "Homo sapiens, 48 h, inhibition of CCL17 secretion in human whole blood, 10 ng/mL IL13, 48 hours"}, "[6]": {"conditions": "Homo sapiens, 48 h, human whole blood, IL-13 stimulated"}, "[7]": {"conditions": "Homo sapiens, 48 h, human whole blood, 10 ng/mL IL13, 48 hours"}}, "note": "Like-named read-outs stand apart in the source and are kept apart here."}
{"molecule": "CC(C)n1nc(C(=O)NCc2ccc(NC(=O)N3CCN(C)CC3)cc2Cl)c2c1[C@@H](C)CN(c1ccc(C(=O)N(C)C)cc1)C2", "note": "[Example 712, (S)-N-(2-chloro-4-(4-methylpiperazine-1-carboxamido)benzyl)-5-(4-(dimethylcarbamoyl)phenyl)-1-isopropyl-7-methyl-4,5,6,7-tetrahydro-1H-pyrazolo[4,3-c]pyridine-3-carboxamide]", "values": [{"measurement": "EC50", "setting": "STAT6; [2]", "value": 3, "unit": "nM"}, {"measurement": "IC50", "setting": "[1]; [3]", "value": 64, "unit": "nM"}]}
{"molecule": "CC(C)n1nc(C(=O)NCc2ccc(-c3ncc[nH]3)cc2)c2c1CCN(c1ccc(N3CCCC3=O)cn1)C2", "note": "[Example 38, N-(4-(1H-imidazol-2-yl)benzyl)-1-isopropyl-5-(5-(2-oxopyrrolidin-1-yl)pyridin-2-yl)-4,5,6,7-tetrahydro-1H-pyrazolo[4,3-c]pyridine-3-carboxamide]", "values": [{"measurement": "EC50", "setting": "STAT6; [4]", "value": 72, "unit": "nM"}, {"measurement": "IC50", "setting": "[1]; [5]", "value": 1640, "unit": "nM"}]}
{"molecule": "CC(C)C1CN(c2ccc(C(=O)N(C)C)cn2)Cc2c(C(=O)NCc3ccc(NC(=O)N(C)C)cc3)nn(C)c21", "note": "(racemic) [Example 265, rac-(R)-5-(5-(dimethylcarbamoyl)pyridin-2-yl)-N-(4-(3,3-dimethylureido)benzyl)-7-isopropyl-1-methyl-4,5,6,7-tetrahydro-1H-pyrazolo[4,3-c]pyridine-3-carboxamide]", "values": [{"measurement": "EC50", "setting": "STAT6; [2]", "value": 5, "unit": "nM"}, {"measurement": "IC50", "setting": "[1]; [6]", "value": 37, "unit": "nM"}]}
{"molecule": "CC(C)n1nc(C(=O)NCc2ccc(NC(=O)N3CCN(C)CC3)c(Cl)c2)c2c1[C@@H](C)CN(c1ccc(C(=O)N(C)C)cc1)C2", "note": "[Example 717, (S)-N-(3-chloro-4-(4-methylpiperazine-1-carboxamido)benzyl)-5-(4-(dimethylcarbamoyl)phenyl)-1-isopropyl-7-methyl-4,5,6,7-tetrahydro-1H-pyrazolo[4,3-c]pyridine-3-carboxamide]", "values": [{"measurement": "EC50", "setting": "STAT6; [2]", "value": 3, "unit": "nM"}, {"measurement": "IC50", "setting": "[1]; [3]", "value": 29, "unit": "nM"}]}
{"molecule": "CN(C)C(=O)Nc1ccc(CNC(=O)c2nc(C(F)(F)F)n3c2CN(c2ccc(C(=O)N(C)C)cn2)CC3)cc1", "note": "[Example 22, 7-(5-(dimethylcarbamoyl)pyridin-2-yl)-N-(4-(3,3-dimethylureido)benzyl)-3-(trifluoromethyl)-5,6,7,8-tetrahydroimidazo[1,5-a]pyrazine-1-carboxamide]", "values": [{"measurement": "EC50", "setting": "STAT6; [4]", "value": 21, "unit": "nM"}, {"measurement": "IC50", "setting": "[1]; [5]", "value": 54, "unit": "nM"}]}
{"molecule": "CC(C)n1nc(C(=O)NCc2ccc(NC(=O)N3CCC4(CC3)CNC4)cc2)c2c1[C@@H](C)CN(c1ccc(C(=O)N(C)C)cc1)C2", "note": "[Example 623, (S)-N-(4-(2,7-diazaspiro[3.5]nonane-7-carboxamido)benzyl)-5-(4-(dimethylcarbamoyl)phenyl)-1-isopropyl-7-methyl-4,5,6,7-tetrahydro-1H-pyrazolo[4,3-c]pyridine-3-carboxamide]", "values": [{"measurement": "EC50", "setting": "STAT6; [2]", "value": 13, "unit": "nM"}, {"measurement": "IC50", "setting": "[1]; [7]", "value": 37, "unit": "nM"}]}
{"molecule": "CC(C)n1nc(C(=O)NCc2ccc(NC(=O)N3CC4(CCN(C)C4)C3)c(F)c2)c2c1[C@@H](C)CN(c1ccc(C(=O)N(C)C)cn1)C2", "note": "[Example 603, (S)-5-(5-(dimethylcarbamoyl)pyridin-2-yl)-N-(3-fluoro-4-(6-methyl-2,6-diazaspiro[3.4]octane-2-carboxamido)benzyl)-1-isopropyl-7-methyl-4,5,6,7-tetrahydro-1H-pyrazolo[4,3-c]pyridine-3-carboxamide]", "values": [{"measurement": "EC50", "setting": "STAT6; [2]", "value": 3, "unit": "nM"}, {"measurement": "IC50", "setting": "[1]; [7]", "value": 31, "unit": "nM"}]}
{"molecule": "CCn1nc(C(=O)NCc2ccc(NC(=O)N(C)C)cc2)c2c1[C@H](C)[C@@H](C)N(c1ccc(C(=O)N(C)C)cn1)C2", "note": "(single isomer, unassigned) [Example 353]", "values": [{"measurement": "EC50", "setting": "STAT6; [2]", "value": 4, "unit": "nM"}, {"measurement": "IC50", "setting": "[1]; [6]", "value": 47, "unit": "nM"}]}
{"molecule": "CCn1nc(C(=O)NCc2ccc(NC(=O)N(C)C)cc2)c2c1[C@@H](C)CN(c1ncc(N3CCCC3=O)cn1)C2", "note": "[Example 488, (S)-N-(4-(3,3-dimethylureido)benzyl)-1-ethyl-7-methyl-5-(5-(2-oxopyrrolidin-1-yl)pyrimidin-2-yl)-4,5,6,7-tetrahydro-1H-pyrazolo[4,3-c]pyridine-3-carboxamide]", "values": [{"measurement": "EC50", "setting": "STAT6; [2]", "value": 3, "unit": "nM"}, {"measurement": "IC50", "setting": "[1]; [6]", "value": 27, "unit": "nM"}]}
{"molecule": "CC(C)n1nc(C(=O)NCc2ccc(NC(=O)N(C)C)cc2)c2c1[C@H](C)[C@@H](C)N(c1ccc(C(=O)N(C)C)cn1)C2", "note": "(single isomer, unassigned) [Example 354]", "values": [{"measurement": "EC50", "setting": "STAT6; [2]", "value": 4, "unit": "nM"}, {"measurement": "IC50", "setting": "[1]; [6]", "value": 24, "unit": "nM"}]}
{"molecule": "CC(C)n1nc(C(=O)NCc2ccc(NC(=O)N3CCC(C4CCNCC4)CC3)cc2)c2c1[C@@H](C)CN(c1ccc(C(=O)N(C)C)cc1)C2", "note": "[Example 620, (S)-N-(4-([4,4′-bipiperidine]-1-carboxamido)benzyl)-5-(4-(dimethylcarbamoyl)phenyl)-1-isopropyl-7-methyl-4,5,6,7-tetrahydro-1H-pyrazolo[4,3-c]pyridine-3-carboxamide]", "values": [{"measurement": "EC50", "setting": "STAT6; [2]", "value": 1, "unit": "nM"}, {"measurement": "IC50", "setting": "[1]; [7]", "value": 8, "unit": "nM"}]}
{"molecule": "CCC(C)n1nc(C(=O)NCc2ccc(NC(=O)N(C)C)cc2)c2c1CCN(c1ccc(C(=O)N(C)C)cn1)C2", "note": "(single isomer, unassigned) [Example 235, rel-(R or S)-1-(sec-butyl)-5-(5-(dimethylcarbamoyl)pyridin-2-yl)-N-(4-(3,3-dimethylureido)benzyl)-4,5,6,7-tetrahydro-1H-pyrazolo[4,3-c]pyridine-3-carboxamide]", "values": [{"measurement": "EC50", "setting": "STAT6; [2]", "value": 15, "unit": "nM"}, {"measurement": "IC50", "setting": "[1]; human whole blood, IL-13 stimulated, 48 hours", "value": 85, "unit": "nM"}]}
{"molecule": "CC(C)n1nc(C(=O)NCc2ccc(NC(=O)N(C)C)cc2)c2c1C[C@@H](C)N(c1ccc(C(=O)N(C)C)cn1)C2", "note": "[Example 114, (R)-5-(5-(dimethylcarbamoyl)pyridin-2-yl)-N-(4-(3,3-dimethylureido)benzyl)-1-isopropyl-6-methyl-4,5,6,7-tetrahydro-1H-pyrazolo[4,3-c]pyridine-3-carboxamide]", "values": [{"measurement": "EC50", "setting": "STAT6; [4]", "value": 20, "unit": "nM"}, {"measurement": "IC50", "setting": "[1]; [5]", "value": 211, "unit": "nM"}]}
{"molecule": "CC(C)n1nc(C(=O)NCc2ccc(NC(=O)N3CCN(C)CC3)c(F)c2)c2c1[C@@H](C)CN(c1ccc(C(=O)N3Cc4cccnc4C3)cn1)C2", "note": "[Example 612, (S)-5-(5-(6,7-dihydro-5H-pyrrolo[3,4-b]pyridine-6-carbonyl)pyridin-2-yl)-N-(3-fluoro-4-(4-methylpiperazine-1-carboxamido)benzyl)-1-isopropyl-7-methyl-4,5,6,7-tetrahydro-1H-pyrazolo[4,3-c]pyridine-3-carboxamide]", "values": [{"measurement": "EC50", "setting": "STAT6; [2]", "value": 0.5, "unit": "nM"}, {"measurement": "IC50", "setting": "[1]; [7]", "value": 10, "unit": "nM"}]}
{"molecule": "CNC(=O)Nc1ccc(CNC(=O)c2nn(C(C)C)c3c2CN(c2ccc(N4CCOC4=O)cn2)C[C@@H]3C)cc1", "note": "[Example 520, (S)-1-isopropyl-7-methyl-N-(4-(3-methylureido)benzyl)-5-(5-(2-oxooxazolidin-3-yl)pyridin-2-yl)-4,5,6,7-tetrahydro-1H-pyrazolo[4,3-c]pyridine-3-carboxamide]", "values": [{"measurement": "EC50", "setting": "STAT6; [2]", "value": 1, "unit": "nM"}, {"measurement": "IC50", "setting": "[1]; [6]", "value": 22, "unit": "nM"}]}
{"molecule": "CCn1nc(C(=O)NCc2ccc(NC(=O)N(C)C)cc2)c2c1CCN(c1ccc(-c3ncnn3C)cn1)C2", "note": "[Example 23, N-(4-(3,3-Dimethylureido)benzyl)-1-ethyl-5-(5-(1-methyl-1H-1,2,4-triazol-5-yl)pyridin-2-yl)-4,5,6,7-tetrahydro-1H-pyrazolo[4,3-c]pyridine-3-carboxamide]", "values": [{"measurement": "EC50", "setting": "STAT6; [4]", "value": 6, "unit": "nM"}, {"measurement": "IC50", "setting": "[1]; [5]", "value": 62, "unit": "nM"}]}
